# Reference: patent US11464802B2, “3-substituted piperidine compounds for Cbl-b inhibition, and use thereof” (Nurix Therapeutics, Inc., priority 2019, dated 2022)
# Key:
# Cbl-b [1] = target: T1, Cbl-b (Homo sapiens (Human), UniProt Q13191); experiment: Cbl-b displacement assay (Cbl-b inhibition assay), Biological Example 8; assay type: binding; conditions: Table 8-1
# Protocol: (§1) Candidate compounds were evaluated for their ability to bind and inhibit Cbl-b, an E3 ubiquitin-protein ligase, as evidenced by their ability to displace a fluorophore-labeled probe bound to Cbl-b.
# (§2) The ability of candidate compounds to displace a known inhibitor and thereby inhibit Cbl-b activity was measured by monitoring the interaction of Cbl-b with a fluorophore-labeled probe in the presence of the candidate compound. A truncated variant of Cbl-b (UniProt number Q13191) containing residues 36-427 and an Avitag at its N-terminus was co-expressed with BirA biotin ligase and purified using a standard protocol (see Dou et al., Nature Structural and Molecular Biology 8: 982-987, 2013; Avidity LLC).
# (§3) Fluorescently-labeled inhibitor probe was synthesized and tagged with BODIPY FL. Cbl-b displacement assays were performed in a 384-well plate at room temperature in a 10 μl reaction volume by pre-incubating 0.5 nM Cbl-b or 0.125 nM Cbl-b (final concentration, indicated as “High” and “Low”, respectively) in an assay buffer containing 20 mM HEPES pH 7.5, 150 mM NaCl, 0.01% Triton X-100, 0.01% BSA and 0.5 mM TCEP in the presence of a candidate compound in 1% DMSO (final concentration) for 1 hour. After incubation in the presence of the candidate compound, the plate was incubated for an additional 1 hour in the presence of an approximate EC40 binding saturation consisting of 150 nM fluorescently-labeled inhibitor probe and 2 nM Streptavidin-Terbium (Cisbio) (final concentrations). Following the 1 hour incubation, the plates were read for TR-FRET signal at 520/620 nM using an Envision plate reader (Perkin Elmer).
# (§4) The resulting data for the Cbl-b activity assays were analyzed using standard methods to determine the IC50 values for the tested compounds.
# [2] = tested on: primary human total T-cells; experiment: Primary human total T-cell activation: CD25 surface staining, Biological Example 13; assay type: cell-based; conditions: 48 hours, fold change over baseline; for fold induction at 0.3 µM: inhibitor 0.3 μM; for fold induction at 0.3 µM / fold induction at 3 µM: Table 13-1; for fold induction at 1 µM: inhibitor 1 μM; for fold induction at 3 µM: inhibitor 3 μM
# [3] = tested on: primary human total T-cells; experiment: Primary human total T-cell activation: IL-2 secretion, Biological Example 9; assay type: cell-based; conditions: 48 hours, fold change over baseline; for fold induction at 0.3 µM: inhibitor 0.3 μM; for fold induction at 0.3 µM / fold induction at 3 µM: Table 9-1; for fold induction at 1 µM: inhibitor 1 μM; for fold induction at 3 µM: inhibitor 3 μM
# Cbl-b [4] = target: T1, Cbl-b; experiment: Cbl-b displacement assay (Cbl-b inhibition assay), TR-FRET probe displacement, Biological Example 1; assay type: binding
# Summary of the method: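 N-terminally Avitagged, biotinylated truncated Cbl-b (0.5 nM "High" or 0.125 nM "Low", final) pre-incubated 1 h at room temperature with compound (1% DMSO) in HEPES pH 7.5 buffer. Then 150 nM BODIPY FL probe (~EC40) plus 2 nM streptavidin-terbium for 1 h; TR-FRET read at 520/620 nm.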
# [5] = tested on: primary human total T-cells; experiment: Primary human total T-cell activation: IL-2 secretion, Biological Example 13; assay type: cell-based; conditions: 48 hours, fold change over baseline; for fold induction at 0.3 µM: inhibitor 0.3 μM; for fold induction at 0.3 µM / fold induction at 3 µM: Table 13-1; for fold induction at 1 µM: inhibitor 1 μM; for fold induction at 3 µM: inhibitor 3 μM
# [6] = tested on: primary human total T-cells; experiment: Primary human total T-cell activation: CD25 surface staining, Biological Example 9; assay type: cell-based; conditions: 48 hours, fold change over baseline; for fold induction at 0.3 µM: inhibitor 0.3 μM; for fold induction at 0.3 µM / fold induction at 3 µM: Table 9-1; for fold induction at 1 µM: inhibitor 1 μM; for fold induction at 3 µM: inhibitor 3 μM
# Cbl-b [7] = target: T1, Cbl-b; experiment: Cbl-b displacement assay (Cbl-b inhibition assay), Biological Example 12; assay type: binding; conditions: Table 12-1
# Protocol: as §1, §2, §3, §4
# [8] = tested on: primary human total T-cells; experiment: Primary human total T-cell activation: IL-2 secretion, Biological Example 2; assay type: cell-based; conditions: 48 hours, fold change over baseline; for fold induction at 1 µM: inhibitor 1 μM
# [9] = tested on: primary human total T-cells; experiment: Primary human total T-cell activation: CD25 surface staining, Biological Example 2; assay type: cell-based; conditions: 48 hours, fold change over baseline; for fold induction at 1 µM: inhibitor 1 μM
# [10] = 0.5 nM Cbl-b final concentration (High), read-out: Cbl-b IC50 (High)
# [11] = anti-CD3/anti-CD28 co-stimulation
# [12] = anti-CD3/anti-CD28 co-stimulation, Table 13-1, read-out: CD25 staining CD3/CD28 1 μM
# [13] = anti-CD3 alone, Table 13-1, read-out: CD25 staining CD3 1 μM
# [14] = anti-CD3/anti-CD28 co-stimulation, Table 9-1, read-out: IL-2 secretion CD3/CD28 1 μM
# [15] = anti-CD3 alone, Table 9-1, read-out: IL-2 secretion CD3 1 μM
# [16] = anti-CD3/anti-CD28 co-stimulation, Table 13-1, read-out: IL-2 secretion CD3/CD28 1 μM
# [17] = anti-CD3 alone, Table 13-1, read-out: IL-2 secretion CD3 1 μM
# [18] = anti-CD3/anti-CD28 co-stimulation, Table 9-1, read-out: CD25 staining CD3/CD28 1 μM
# [19] = anti-CD3 alone, Table 9-1, read-out: CD25 staining CD3 1 μM
# [20] = anti-CD3/anti-CD28 co-stimulation, inhibitor 0.3 μM
# [21] = 0.125 nM Cbl-b final concentration (Low), read-out: Cbl-b IC50 (Low)
# T1 sequence (Q13191 36-427): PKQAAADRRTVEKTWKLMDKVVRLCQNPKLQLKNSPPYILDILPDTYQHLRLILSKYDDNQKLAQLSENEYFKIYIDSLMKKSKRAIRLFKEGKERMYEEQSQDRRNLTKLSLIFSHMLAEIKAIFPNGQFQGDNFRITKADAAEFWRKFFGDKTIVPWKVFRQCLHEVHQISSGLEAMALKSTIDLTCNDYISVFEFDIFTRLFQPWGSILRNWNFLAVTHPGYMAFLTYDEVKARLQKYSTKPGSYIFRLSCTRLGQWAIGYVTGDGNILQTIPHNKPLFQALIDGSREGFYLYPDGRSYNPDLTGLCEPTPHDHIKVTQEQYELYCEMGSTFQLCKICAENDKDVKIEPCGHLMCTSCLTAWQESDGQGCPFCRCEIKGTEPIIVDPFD
IC50 (Cbl-b [1]; [21]),IC50 (Cbl-b [7]; [21]),Structure (SMILES),"fold induction at 0.3 µM [2, 11]","fold induction at 1 µM [2, 12]","fold induction at 1 µM [2, 13]",fold induction at 3 µM ([2]; anti-CD3 alone),"fold induction at 0.3 µM [3, 11]","fold induction at 1 µM [3, 14]","fold induction at 1 µM [3, 15]",fold induction at 3 µM ([3]; anti-CD3 alone),"fold induction at 0.3 µM [5, 11]","fold induction at 1 µM [5, 16]","fold induction at 1 µM [5, 17]",fold induction at 3 µM ([5]; anti-CD3 alone),"fold induction at 0.3 µM [6, 11]","fold induction at 1 µM [6, 18]","fold induction at 1 µM [6, 19]",fold induction at 3 µM ([6]; anti-CD3 alone),further results
–,–,"C[C@@H]1CN(Cc2cc(C(=O)Nc3cccc(C4(Cc5nncn5C)COC4)c3)nc(C3CC3)c2)CCC1(F)F [Compound 32, 6-cyclopropyl-4-{[(3R)-4,4-difluoro-3-methylpiperidin-1-yl]methyl}-N-(3-{3-[(4-methyl-1,2,4-triazol-3-yl)methyl]oxetan-3-yl}phenyl)pyridine-2-carboxamide]",> 1.39,> 1.39,> 1.14,> 1.14,> 15,> 15,> 0.66,> 0.66,> 15,> 15,> 0.66,> 0.66,> 1.39,> 1.39,> 1.14,> 1.14,"IC50 (Cbl-b [1]; [10]): < 1 nM; IC50 (Cbl-b [4]; 0.5 nM Cbl-b final concentration (High), read-out: Cbl-b activity IC50 (High)): < 1 nM; IC50 (Cbl-b [4]; Cbl-b concentration (High or Low) not given, read-out: IC50 values in the Cbl-b inhibition assay of Biological Example 1): < 1 nM; IC50 (Cbl-b [7]; [10]): < 1 nM; fold induction at 0.3 µM [8, 20]: > 15; fold induction at 1 µM ([8]; anti-CD3/anti-CD28 co-stimulation, read-out: IL-2 secretion CD3/CD28 1 μM): > 15; fold induction at 1 µM ([8]; anti-CD3 alone, read-out: IL-2 secretion CD3 1 μM): 0.34 to 0.66; fold induction at 3 µM ([8]; anti-CD3 alone, inhibitor 3 μM): 0.34 to 0.66; fold induction at 0.3 µM [9, 20]: < 1.24; fold induction at 1 µM ([9]; anti-CD3/anti-CD28 co-stimulation, read-out: CD25 staining CD3/CD28 1 μM): < 1.24; fold induction at 1 µM ([9]; anti-CD3 alone, read-out: CD25 staining CD3 1 μM): 1.05 to 1.14; fold induction at 3 µM ([9]; anti-CD3 alone, inhibitor 3 μM): 1.05 to 1.14"
1 to 5 nM,1 to 5 nM,C[C@@H](c1cc2c(c(C(F)(F)F)c1)CN(c1cccc(C3(Cc4nncn4C)COC3)c1)C2=O)N1CCC(F)CC1 [Compound 61],> 1.39,> 1.39,> 1.14,> 1.14,> 15,> 15,0.34 to 0.66,0.34 to 0.66,> 15,> 15,0.34 to 0.66,0.34 to 0.66,> 1.39,> 1.39,> 1.14,> 1.14,–
1 to 5 nM,1 to 5 nM,C[C@@H](c1cc2c(c(C(F)(F)F)c1)CN(c1cccc(C3([C@@H](F)c4nncn4C)COC3)c1)C2=O)N1CCC2(CC2)C1 [Compound 60],> 1.39,> 1.39,> 1.14,> 1.14,> 15,> 15,0.34 to 0.66,0.34 to 0.66,> 15,> 15,0.34 to 0.66,0.34 to 0.66,> 1.39,> 1.39,> 1.14,> 1.14,–
